From patent publication US11299760B2 (Amgen Inc., priority 2013, dated 2022)

Key:
Type in all cases: cell-based, Chinese hamster
[1] = system: recombinant CHO cell line producing an antibody (MAb A); experiment: six day batch assay, cell culture parameters (VCD, viability, titer); settings: for Titer / VCD / Viability: day 6
Method: Cells were centrifuged at 1500 rpm for five minutes and seeded at 2×10^6 cells per ml into batch production medium in a 24 deep-well plate at a final volume of 3 ml.
Cell density and viability were measured by Guava easyCyte flow cytometer (Milipore, Billerica, Mass.) with the ViaCount application. Cultures were spun down, supernatants were filtered on 0.4 micron filters, and were analyzed for titer and glycan distribution.
Antibody titer was measured by loading filtered cell culture supernatants over a POROS A/20 Protein A column (Applied Biosystems, Carlsbad, Calif.) equilibrated with 20 mM Tris, […], pH 7.0 buffer. Antibody elution was performed with 220 mM acetic acid, […], pH 2.6 buffer at a mobile phase flow rate of 4.0 ml/min. Eluted antibody was detected at a wavelength of 280 nm. Antibody concentration was determined based on a standard curve with a reference antibody standard. For high molecular weight measurement, antibodies were purified from spent medium supernatants on ATOLL columns (ATOLL-Bio Inc USA, Lawrance, Kans.) and were then analyzed using size exclusion chromatography.
Cell culture performance was assessed via viable cell density (VCD), viability and titer measurements of harvested samples. Each bar represents an average result for duplicate cell culture samples. Each value is an average of duplicates.

Cells producing MAb A = experiment: mock perfusion assay, cell culture parameters; settings: for CVCD / Cumulative Titer / End of Production Viability / qP: MAb A
Method: (§1) Mock perfusion assay is a small scale, plate-based assay that is designed to mimic perfusion conditions in bioreactors through daily medium exchanges. For a 10-day mock perfusion assay, passaging cultures of various production cell lines were diluted 1:5 into chemically defined base perfusion medium in a 24 deep-well plate at a final volume of 3 ml per well. Mock perfusion was initiated on day 3 when the cells were spun down at 1000 rpm for 5 minutes and 25% of each spent culture medium was exchanged with the equivalent volume of fresh perfusion media. Subsequent medium exchange percentages were 40% on days 4-8 and 50% on day 9. Exchanged supernatants were stored at 4° C. prior to analysis.
(§2) Analysis of cell culture parameters was also started on day 3; viable cell density and viability were analyzed using the ViaCount Guava assay as previously described. Glucose was measured daily starting on day 3 and was maintained at 12 g/l. Stored supernatants were analyzed for antibody titer as described previously. Samples of supernatant fluid from days 6, 8 and 10 were also analyzed for the presence and type of glycans by HILIC analysis.
(§3) The cell lines used included three production cell lines that are known to generate mAbs with low high mannose glycans (MAb A, MAb B and MAb C) and one production cell line that consistently produces product with high levels of high mannose glycans (MAb D). […] Equivalent volumes of methanol were added daily to control cultures (columns 1 and 2 of the 24-well plate). This scheme is depicted below:
(§4) Viable cell density (VCD) and viability were measured daily starting on day 3. Spent medium samples were collected on days 3-10 and were subjected to titer analysis. Viable cell densities were used to calculate cumulative viable cell densities, which were along with cumulative titer values used to calculate specific productivities (qP). Every value shown is an average of duplicates.

Cells producing MAb B = experiment: mock perfusion assay, cell culture parameters; settings: for CVCD / Cumulative Titer / End of Production Viability / qP: MAb B
Method: as §1, §2, §3, §4

Cells producing MAb C = experiment: mock perfusion assay, cell culture parameters; settings: for CVCD / Cumulative Titer / End of Production Viability / qP: MAb C
Method: as §1, §2, §3, §4

Cells producing MAb D = experiment: mock perfusion assay, cell culture parameters; settings: for CVCD / Cumulative Titer / End of Production Viability / qP: MAb D
Method: as §1, §2, §3, §4

[2] = increasing monensin (to 100 nM)

## CC[C@@]1([C@@H]2O[C@@H]([C@H]3O[C@@](O)(CO)[C@H](C)C[C@@H]3C)C[C@@H]2C)CC[C@H]([C@]2(C)CC[C@]3(C[C@H](O)[C@@H](C)[C@@H]([C@@H](C)[C@@H](OC)[C@H](C)C(=O)O)O3)O2)O1 [monensin]
[1]; 0.1 nM monensin added day 1
  Titer: 3.835 g/L
  VCD: 10 10^6c/ml
  Viability: 81%
[1]; 0.5 nM monensin added day 1
  Titer: 4.415 g/L
  VCD: 11 10^6c/ml
  Viability: 81%
[1]; 1 nM monensin added day 1
  Titer: 4.265 g/L
  VCD: 11 10^6c/ml
  Viability: 82%
[1]; 5 nM monensin added day 1
  Titer: 3.45 g/L
  VCD: 11 10^6c/ml
  Viability: 82%
[1]; 10 nM monensin added day 1
  Titer: 3.635 g/L
  VCD: 11 10^6c/ml
  Viability: 81%
[1]; 25 nM bolus on day 0 or 200 nM or 100 nM bolus on day 3
  impact on cell culture parameters: no negative impact on cell culture parameters
[1]; 25 nM monensin added day 1
  Titer: 5.22 g/L
  VCD: 11 10^6c/ml
  Viability: 85%
[1]; 50 nM monensin added day 1
  Titer: 2.025 g/L
  VCD: 5 10^6c/ml
  Viability: 72%
[1]; 100 nM monensin added day 3
  Titer: 3.515 g/L
  VCD: 11 10^6c/ml
  Viability: 86%
[1]; 200 nM monensin added day 3
  Titer: 4.43 g/L
  VCD: 11 10^6c/ml
  Viability: 87%
[1]; 500 nM monensin added day 3
  Titer: 3.055 g/L
  VCD: 5 10^6c/ml
  Viability: 41%
Cells producing MAb A; MAb A cells, mock perfusion
  effect on cell growth: decrease in total cell mass accumulation
  effect on titer and specific productivity: decreased titer but increased specific productivity
Cells producing MAb A; constant monensin 25 nM
  CVCD: 57 10^6 c-day/ml
  Cumulative Titer: 5.9 g/L
  End of Production Viability: 78%
  qP: 103 pg/c/d
Cells producing MAb A; increasing monensin (to 50 nM)
  CVCD: 57 10^6 c-day/ml
  Cumulative Titer: 5.8 g/L
  End of Production Viability: 80%
  qP: 101 pg/c/d
Cells producing MAb B; MAb B cells, mock perfusion
  effect on growth or viability: no effect on the growth or viability
  effect on titer and specific productivity: no impact on either titer or specific productivity
Cells producing MAb B; constant monensin 25 nM
  CVCD: 89 10^6 c-day/ml
  Cumulative Titer: 3.5 g/L
  End of Production Viability: 85%
  qP: 40 pg/c/d
Cells producing MAb B; [2]
  CVCD: 88 10^6 c-day/ml
  Cumulative Titer: 3.6 g/L
  End of Production Viability: 83%
  qP: 40 pg/c/d
Cells producing MAb C; MAb C cells, mock perfusion
  effect on cumulative viable cell density and viability: slightly increased cumulative viable cell density and improved the viability
  effect on titer and specific productivity: increased titer but slightly lower specific productivity
Cells producing MAb C; MAb C cells, mock perfusion with monensin
  titer and cell culture impacts: no drop in titer or any other negative cell culture impacts
Cells producing MAb C; constant monensin 25 nM
  CVCD: 215 10^6 c-day/ml
  Cumulative Titer: 7.4 g/L
  End of Production Viability: 77%
  qP: 34 pg/c/d
Cells producing MAb C; [2]
  CVCD: 208 10^6 c-day/ml
  Cumulative Titer: 7.1 g/L
  End of Production Viability: 77%
  qP: 34 pg/c/d
Cells producing MAb D; MAb D cells, mock perfusion
  effect on cell growth: similar, though not as pronounced, negative growth impact
  effect on titer and specific productivity: slightly decreased the titer of MAb D cells but had no effect on specific productivity
Cells producing MAb D; constant monensin 25 nM
  CVCD: 104 10^6 c-day/ml
  Cumulative Titer: 4.5 g/L
  End of Production Viability: 68%
  qP: 43 pg/c/d
Cells producing MAb D; [2]
  CVCD: 89 10^6 c-day/ml
  Cumulative Titer: 3.6 g/L
  End of Production Viability: 53%
  qP: 41 pg/c/d
